Data as given in patent US12617752B2, “Rapidly metabolized lipid compound” (Beijing Jitai Life Sciences Ltd, priority 2023, dated 2026).

How the values were obtained:
[1] = Particle size and PDI of lipid nanoparticles by dynamic light scattering; type: physicochemical; settings: lipid nanoparticles with luciferase mRNA; ionizable lipid/cholesterol/DSPC/DMG-PEG2000 50/38.5/10/1.5 mol%
Procedure: (§1) Lipid nanoparticles were prepared by (1) dissolving and mixing ionizable lipid compounds, cholesterol, phospholipids and polyethylene glycolated lipids in ethanol at (molar percentages) 50%, 38.5%, 10% and 1.5%, respectively; (2) dissolving the mRNA active ingredient in 25 mM sodium acetate solution (pH=4.5); (3) using an automated high-throughput microfluidic system to mix the organic phase containing the lipid mixture and the aqueous phase containing the mRNA component in the flow ratio range of 1:1 to 1:4 at a mixing speed of 10 mL/min to 18 mL/min; (4) the prepared lipid nanoparticles (N/P ratio=6) were diluted with phosphate buffer solution and the nanoparticle solutions were ultrafiltered to the original preparation volume using ultrafiltration tubes (purchased from Millipore) with a cut-off molecular weight of 30 kDa; and (5) the obtained nanoparticles were filtered through a sterile 0.2 μm filter membrane and then stored in a sealed glass vial at low temperature.
(§2) The particle size and particle size dispersity index (PDI) of the prepared lipid nanoparticles were measured using a Zetasizer Pro (purchased from Malvern Instruments Ltd) and a DynaPro NanoStar (purchased from Wyatt) dynamic light scattering instrument. The degree of RNA encapsulation by lipid nanoparticles was characterized by the Encapsulation Efficiency %, which reflects the degree of binding of lipid nanoparticles to RNA fragments. This parameter was measured by the method of Quant-it™ RiboGreen RNA Assay (purchased from Invitrogen). Lipid nanoparticle samples were diluted in TE buffer (10 mM Tris-HCl, 1 mM EDTA, pH=7.5). A portion of the sample solution was removed, to which 0.5% Triton (Triton X-100) was added, and then allowed to stand at 37° C. for 30 minutes. Immediately after the addition of RIBOGREEN® reaction solution, the fluorescence values were read on a Varioskan LUX multifunctional microplate reader (purchased from Thermofisher) at 485 nm for absorption and 528 nm for emission to give the encapsulation efficiency values.

[2] = Encapsulation efficiency of lipid nanoparticles (Quant-it RiboGreen RNA Assay); type: physicochemical; settings: lipid nanoparticles with luciferase mRNA
Procedure: as §1, §2

C57BL/6 mice = experiment: In vivo delivery of luciferase mRNA lipid nanoparticles in mice (bioluminescence imaging); settings: intravenous, single dose 0.5 mg/kg luciferase mRNA
Procedure: The delivery effect and safety of nanoparticles encapsulated with luciferase mRNA (Trilink, L-7202) in mice were evaluated. The test mice were SPF-grade C57BL/6 mice, female, 6-8 weeks old, weighing 18-22 g, and were purchased from SPF (Beijing) Biotechnology Co., Ltd. All animals were acclimatized for more than 7 days prior to the experiment, and had free access to food and water during the experiment. The conditions include alternating light and dark for 12/12 h, the indoor temperature of 20-26° C. and the humidity of 40-70%. The mice were randomly grouped. The lipid nanoparticles encapsulated with luciferase mRNA prepared above were injected into mice by intravenous administration at a single dose of 0.5 mg/kg mRNA, and the mice were subjected to in vivo bioluminescence assay using a Small Animal In Vivo Imaging System (IVIS LUMINA III, purchased from PerkinElmer) at 6 h after administration. The assay was performed as follows: D-luciferin solution was prepared in saline at a concentration of 15 mg/mL, and each mouse was given the substrate by intraperitoneal injection. At ten minutes after administration of the substrate, the mice were anesthetized in an anesthesia chamber with isoflurane at a concentration of 2.5%. The anesthetized mice were placed in IVIS for fluorescence imaging, and data acquisition and analysis were performed on the concentrated distribution area of fluorescence.
The in vivo delivery efficiency of lipid nanoparticle carriers was expressed as the mean values of fluorescence intensity and total photon count in different animals within the same subject group, as shown in Table 5-Table 11. Higher values of fluorescence intensity and total photon count indicate higher in vivo delivery efficiency of this mRNA fragment by lipid nanoparticles. The lipid nanoparticles containing the cationic lipids of the present disclosure have good in vivo delivery efficiency.

| Compound | Particle size (nm) [1] [nm] | Particle-size distribution (PDI) [1] | Encapsulation efficiency (%) [2] [%] | Total photon count in vivo at 6 hours after administration (Total Flux) (C57BL/6 mice) |
| --- | --- | --- | --- | --- |
| CCCCCCCCCCCC(=O)OCC(C)(C)CCCCCN(CCO)CCCCCCCCC(=O)OCC(CCCCCCCC)CCCCCCCC [98b] | 87.99 | 0.18 | 93.04 | 1.07E+11 |
| CCCCCCCCCC(=O)OCC(C)(C)CCCCCN(CCO)CCCCCCC(=O)OCCC(CCCCCCC)CCCCCCC [68b] | 88.33 | 0.20 | 96.31 | 2.88E+11 |
| CCCCCCCCCC(=O)OCC1(CCCCCN(CCCCCCCC(=O)OCC(CCCCCCC)CCCCCCC)C(=O)SCCCN(C)C)CC1 [43b] | 121.89 | 0.08 | 95.26 | 1.29E+10 |
| CCCCCCCCCCCSC(=O)CCCCCN(CCO)CCCCCCC(C)(C)C(=O)OC(CCCCCCCC)CCCCCCCC [53a] | 124.00 | 0.23 | 90.96 | 9.04E+10 |
| CCCCCCCCCOC(=O)C(C)(C)CCCCCCN(CCO)CCCCCCOC(=O)OCC(CCCCCCC)CCCCCCC [40a] | 120.90 | 0.18 | 95.08 | 2.03E+11 |
| CCCCCCCCCCC(=O)OCC1(CCCCCN(CCO)CCCCCCCC(=O)OC(CCCCCCCCC)CCCCCCCCC)CC1 [21b] | 94.58 | 0.051 | 92.37 | 4.95E+10 |
| CCCCCCCCCC(=O)OCC1(CCCCCN(CCO)CCCCCCCC(=O)OC(CCCCCCCC)CCCCCCCC)CC1 [14b] | 99.73 | 0.013 | 83.54 | 1.05E+11 |
| CCCCCCCCCCOC(=O)CCCCCCCN(CCO)CCCCCC(C)(C)COC(=O)C(CCCCCCCC)CCCCCCCC [18b] | 100.46 | 0.037 | 89.34 | 3.91E+10 |
| CCCCCCCCCCCC(=O)OCC(C)(C)CCCCCN(CCCO)CCCCCCC(=O)OCC(CCCCCCCCCC)CCCCCCCCCC [86b] | 92.26 | 0.13 | 94.74 | 1.01E+11 |
| CCCCCCCCCCCC(=O)OCC(C)(C)CCCCCN(CCO)CCCCCCC(=O)OCC(CCCCCCCCCC)CCCCCCCCCC [97b] | 85.56 | 0.14 | 93.79 | 9.01E+10 |
| CCCCCCCCCC(=O)OCC(C)(C)CCCCCN(CCCCO)CCCCCCC(=O)OCCC(CCCCCCC)CCCCCCC [70b] | 96.20 | 0.09 | 96.91 | 1.15E+11 |
| CCCCCCCCCCC(=O)OCCCC(C)(C)CCCN(CCCO)CCCCCCCC(=O)OCCC(CCCCCCC)CCCCCCC [81b] | 107.43 | 0.19 | 92.87 | 5.20E+10 |
| CCCCCCCCCC(=O)OCC1(CCCCCN(CCO)CCCCCCCC(=O)OCCC(CCCCCC)CCCCCC)CC1 [23b] | 115.70 | 0.031 | 93.14 | 3.92E+10 |
| CCCCCCCCCCCOC(=O)CCCCC(C)(C)CCN(CCCCO)CCCCCCCC(=O)OC(CCCCCCCCCC)CCCCCCCCCC [68a] | 103.93 | 0.04 | 94.47 | 7.55E+10 |
| CCCCCCCCCCCOC(=O)CCCCCN(CCO)CCCCCCC(C)(C)C(=O)OC(CCCCCCCC)CCCCCCCC [3a] | 89.72 | 0.021 | 94.23 | 1.03E+11 |
| CCCCCCCCCOC(=O)CCCCC(C)(C)CCN(CCO)CCCCCCCC(=O)OCC(CCCCCCC)CCCCCCC [26a] | 106.37 | 0.050 | 91.18 | 1.11E+11 |
| CCCCCCCCCCCOC(=O)OCCCCN(CCO)CCCCCCC(C)(C)C(=O)OC(CCCCCCCC)CCCCCCCC [36a] | 104.80 | 0.15 | 92.41 | 2.51E+10 |
| CCCCCCCCCCOC(=O)CCCCC(C)(C)CCN(CCCCCCCC(=O)OC(CCCCCCCCC)CCCCCCCCC)C(=O)SCCCCN(C)C [60a] | 92.74 | 0.15 | 97.44 | 1.75E+10 |
| CCCCCCCCCCOC(=O)CCC(C)(C)CCCCN(CCCCO)CCCCCCCC(=O)OC(CCCCCCCCC)CCCCCCCCC [29a] | 88.59 | 0.012 | 97.30 | 5.46E+10 |
| CCCCCCCCCOC(=O)CCCCCCCN(CCO)CCCCCCC1(C(=O)OC(CCCCCCCC)CCCCCCCC)CC1 [6a] | 90.67 | 0.018 | 87.22 | 2.88E+10 |
| CCCCCCCCOC(=O)OCC(C)(C)CCCCCN(CCCCCCOC(=O)CC(CCCCCCCC)CCCCCCCC)C(=O)SCCCCN(C)C [50b] | 98.36 | 0.13 | 98.50 | 1.01E+10 |
| CCCCCCCCCC(=O)OCC1(CCCCCN(CCCCO)CCCCCCCC(=O)OC(CCCCCCCCC)CCCCCCCCC)CC1 [24b] | 83.05 | 0.019 | 94.52 | 7.06E+10 |
| CCCCCCCCCOC(=O)CCCCC(C)(C)CCN(CCO)CCCCCCC(=O)OCC(CCCCCCCC)CCCCCCCC [70a] | 86.08 | 0.15 | 96.69 | 9.33E+10 |
| CCCCCCCCCC(=O)OCCCC(C)(C)CCCN(CCO)CCCCCCCCC(=O)OCC(CCCCCC)CCCCCC [111b] | 187.13 | 0.21 | 63.26 | 3.98E+10 |
| CCCCCCCCCC(=O)OCCCC(C)(C)CCCN(CCO)CCCCCCCC(=O)OCCC(CCCCCC)CCCCCC [71b] | 95.59 | 0.17 | 95.95 | 1.70E+11 |
| CCCCCCCCCOC(=O)CCCCCCCN(CCO)CCCC(C)(C)CCC(=O)OC(CCCCCCCC)CCCCCCCC [10a] | 131.09 | 0.032 | 89.69 | 7.08E+10 |
